From patent US20240058335A1, “METHODS FOR TREATMENT OF CANCER USING ABL INHIBITORS AND DRUGS TARGETING THE MEVALONATE PATHWAY” (Duke University, priority 2021, published 2024)
Like-named read-outs stand apart in the source and are kept apart here.

Key:
[1] = tested on: lung cancer cells (PC9, PC9 GR4, PC9 BrM3, H460, H358); test: 72 hr growth inhibition / cell viability assay with drug combinations and metabolite rescue; format: cell-based, human; conditions: for cell survival in the presence of statins: PC9-BrM3, sub-therapeutic doses, 72 hrs; for cell survival on co-treatment with ABL001: PC9 GR4, PC9 and H460 cells; for rescue of cell survival in cells co-treated with ABL001 and simvastatin: metabolite supplement, 72 hours, PC9 GR4, PC9, H460
H460 cells = test: Cell viability dose-response assay (CellTiter-Glo), IC50 calculation; format: cell-based, human
PC9 cells [2] = test: cells; conditions: Homo sapiens, PC-9, read-out: Calculated IC50
[3] = tested on: lung cancer cells (PC9, PC9 GR4, H460, H358); test: Seahorse XF Analyzer Mito Stress Test (OCR: basal respiration, maximal respiration, ATP production); format: cell-based, human; conditions: for mitochondrial function (basal respiration, maximal respiration, ATP production; OCR): IC50 doses, 24 hours, PC9, PC9 GR4, H460, H358; for mitochondrial respiration in cells treated with ABL001 and simvastatin (MVA rescue and its reversal): PC9 GR4, added to ABL001 + simvastatin (inhibitors with MVA)
Description: (FIGS. 2A-2D) Seahorse XF Analyzer Mito Stress Test analysis of mitochondrial basal respiration, maximal respiration, and ATP production as measured by changes in oxygen consumption rate (OCR). […] (FIG. 2E) Mitochondrial basal respiration, maximal respiration, and ATP production as measured by Seahorse XF Analyzer's Mito Stress Test for PC9 cells harboring shRNAs against ABL1/ABL2 (shAA) and non-targeting control (shSCR). (FIGS. 2F-2G) Mitochondrial ROS (MitoROS) release as measured by FACS analysis of median fluorescent intensity (MFI) using Mitosox probe. […] Data are mean±SEM. […] Seahorse XF Analyzer Mito Stress Test analysis of mitochondrial basal respiration, maximal respiration, and ATP production as measured by changes in oxygen consumption rate (OCR) in the indicated lung cancer cells: (FIG. 8A) PC9; (FIG. 8B) PC9 GR4; (FIG. 8C) H460. […] Doses correspond to IC50 dose for each drug in the corresponding cell line. In each graph, for each of Basal Respiration, Maximal Respiration, and ATP production, data is shown from left to right for DMSO, GNF5, and Nilotinib. […] Cells were treated with IC50 doses for 24 hours (n=3). Data are mean±SEM. […] SEAHORSE MEASUREMENTS. Basal and maximal oxygen consumption rate and ATP production were measured using a Mito Stress test Kit and XF96 Extracellular Flux Analyzer (Seahorse Bioscience), according to manufacturer's instructions. Cells were plated in XF96 plates at 10,000 cells per well on Day 0. […] The plate was incubated in a non-CO2 incubator at 37° C. for 1 hr to equilibrate.

PC9 GR4 cells [4] = test: Cell viability dose-response assay (CellTiter-Glo), IC50 calculation; format: cell-based, human
PC9 cells [5] = conditions: read-out: Calculated IC50, dose-response assay
PC9 BrM3 cells = test: Cell viability dose-response assay (CellTiter-Glo), IC50 calculation; format: cell-based, human; conditions: read-out: Calculated IC50
H358 cells = test: as above; format: cell-based, human
[6] = tested on: lung cancer cells (PC9, PC9 GR4, PC9 BrM3, H460); test: Immunoblotting of apoptosis, prenylation and cytochrome c markers; format: cell-based, human; conditions: 24 hr
PC9 GR4 cells [7] = test: Real-time quantitative PCR of BCL-2 family mRNAs; format: cell-based, human; conditions: PC9 GR4, metabolite supplement, 24 hours
Procedure: (FIG. 5E) Immunoblots of cytochrome c, cleaved PARP, β-catenin, GAPDH, and β-Tubulin. […] Cytoplasmic, membrane, and whole cell fractions are shown for drug treatments. […] Data are mean±SEM. REAL-TIME QUANTITATIVE PCR. RNA was isolated from subconfluent monolayers of cancer cells using the RNeasy RNA isolation kit (QIAGEN), and cDNA synthesis was performed using oligo(dT) primers and M-MLV reverse transcriptase (Invitrogen). RT-qPCR was performed in triplicate wells using iTaq Universal SYBR Green Supermix (Bio-Rad). Primers used in this study were purchased from Sigma Aldrich. Analysis of real-time data was collected using a Bio-Rad CFX384 machine and CFX Maestro software. Expression levels of each gene were normalized to GAPDH control housekeeping genes using the ddCT algorithm.

[8] = cited from earlier work
[9] = tested on: PC9, PC9 GR4 and H460 cells; test: MitoSOX staining, mitochondrial ROS by FACS; format: cell-based, human; conditions: EGFR mutant PC9 and PC9 GR4 cells, IC50 doses, 24 hours
PC9 and H460 cells = test: MitoTracker staining, mitochondria number and morphology; format: cell-based, human; conditions: IC50 dose, 24 hours
Procedure: (FIG. 9A) Mitochondrial basal respiration, maximal respiration, and ATP production as measured by changes in oxygen consumption rate (OCR) from Seahorse XF Analyzer Mito Stress Test analysis for H460 cells harboring shRNAs against ABL1/ABL2 (shAA) and non-targeting control (shSCR). (FIG. 9B) FACS analysis of mitochondrial ROS (MitoROS) using mitosox probe in H460 cells treated with 15 NM GNF5, 15 NM ABL001, and 0.5 nM Docetaxel for 24 hours. n=3 (FIGS. 9C-9D) MitoROS in H460 AA knockdown cells (FIG. 9C) or PC9 AA knockdown cells (FIG. 9D). (FIGS. 9E-9F) M[…] to analyze mitochondria number in H460 cells with 15 NM GNF5 (FIG. 9E) or PC9 cells treated with 10 NM GNF5 (FIG. 9F). n=3 (FIGS. 9G-9H) M[…] of H460 AA knockdown cells (FIG. 9G) or PC9 AA knockdown cells (FIG. 9H). n=3 Statistical analysis was calculated using unpaired two-tailed t test *p<0.05, Data are mean±SEM. (FIG. 9I) H460 cells stained with Mitotracker and Hoescht 33342 following treatment with IC50 dose for each drug for 24 hours. Image quantification showing mitochondrial length×width plotted for thousands of mitochondria from >10 cells across at least two independent experiments. Changes were not statistically significant.
M[…] . MitoTracker Red CMXRos was purchased from Thermofisher (cat. M7512). […] The samples were analyzed using flow cytometer BD FACS Canto II. […]

[10] = Homo sapiens, NCI-H460, H460, dose-response assay, read-out: Calculated IC50
[11] = Homo sapiens, PC9 GR4, dose-response assay, read-out: Calculated IC50
[12] = H460, dose-response assay, read-out: Calculated IC50
[13] = PC9 GR4, dose-response assay, read-out: Calculated IC50
[14] = Homo sapiens, PC9 BrM3, dose-response assay
[15] = Homo sapiens, NCI-H358, H358, dose-response assay, read-out: Calculated IC50

IC50 (H460 cells; [10]) [µM]	IC50 (PC9 cells [2]) [µM]	IC50 (PC9 GR4 cells [4]; [11]) [µM]	Compound	mitochondrial function (basal respiration, maximal respiration, ATP production; OCR) [3]	IC50 (PC9 cells [5]) [µM]	IC50 (H460 cells; [12]) [µM]	IC50 (PC9 GR4 cells [4]; [13]) [µM]	cell survival in the presence of statins [1]	mitochondrial respiration in cells treated with ABL001 and simvastatin (MVA rescue and its reversal) [3]	other results
2	2	2	Cc1cn(-c2cc(NC(=O)c3ccc(C)c(Nc4nccc(-c5cccnc5)n4)c3)cc(C(F)(F)F)c2)cn1 [Nilotinib]	inability of Nilotinib to inhibit mitochondria function						cell viability on co-treatment with simvastatin or fluvastatin ([1]; PC9 GR4 and H460, sublethal doses, 72 hr): did not promote additive or synergistic decreases in cell viability
			CC(C)n1c(/C=C/C(O)CC(O)CC(=O)O)c(-c2ccc(F)cc2)c2ccccc21 (stereo not shown) [Fluvastatin]		2	4	2			IC50 (PC9 BrM3 cells; PC9 BrM3, dose-response assay): 2 µM; IC50 (H358 cells; H358, dose-response assay, read-out: Calculated IC50): 4 µM
			COc1cc2ncnc(Nc3ccc(F)c(Cl)c3)c2cc1OCCCN1CCOCC1 [Gefitinib, gefitinib]	not impaired				did not affect cell survival		
			COC(=O)[C@H](CCSC)NC(=O)c1ccc(NC[C@@H](N)CS)cc1-c1ccccc1 [FTI-277]		50	15	50		minimal effect	cell survival on co-treatment with ABL001 ([1]; 72 hr): only slightly decreased
			C[C@@](O)(CCO)CC(=O)O [MVA, mevalonate]						restored mitochondrial respiration back to baseline	rescue of cell survival in cells co-treated with ABL001 and simvastatin [1]: could rescue cell survival; reversal of cytochrome c release ([6]; PC9 GR4, 500 μM MVA added to ABL001 and simvastatin): reversed; prevention of PARP and caspase-3 cleavage in cells co-treated with ABL001 and simvastatin ([6]; metabolite supplement): prevented cleavage of PARP and caspase-3; restoration of BCL-2 family gene expression in combination-treated cells (PC9 GR4 cells [7]): restored gene expression back to baseline
0.0005	0.001	0.001	CC(=O)O[C@@]12CO[C@@H]1C[C@H](O)[C@@]1(C)C(=O)[C@H](O)C3=C(C)[C@@H](OC(=O)[C@H](O)[C@@H](NC(=O)OC(C)(C)C)c4ccccc4)C[C@@](O)([C@@H](OC(=O)c4ccccc4)[C@H]21)C3(C)C [Docetaxel, docetaxel]	did not significantly impair				did not affect cell survival		IC50 (PC9 BrM3 cells; [14]): 0.001 µM; IC50 (H358 cells; [15]): 0.001 µM
12	4	4	CCC(C)(C)C(=O)O[C@H]1C[C@@H](C)C=C2C=C[C@H](C)[C@H](CC[C@@H]3C[C@@H](O)CC(=O)O3)[C@H]21 [Simvastatin, simvastatin]							IC50 (PC9 BrM3 cells; [14]): 4 µM; IC50 (H358 cells; [15]): 12 µM
			CC(C)=CCC/C(C)=C/CC/C(C)=C/CC/C(C)=C/COP(=O)(O)OP(=O)(O)O [GGPP, geranylgeranyl diphosphate]							rescue of cell survival in cells co-treated with ABL001 and simvastatin [1]: preferentially rescued cell viability
			COC(=O)[C@H](CC(C)C)NC(=O)c1ccc(NC[C@@H](N)CS)cc1-c1cccc2ccccc12 [GGTI-298]		20	15	20		negated the MVA rescue	cell survival on co-treatment with ABL001 ([1]; 72 hr): significantly impaired

Compound	IC50 (H460 cells; [10]) [µM]	IC50 (PC9 cells [2]) [µM]	IC50 (PC9 GR4 cells [4]; [11]) [µM]	mitochondrial function (basal respiration, maximal respiration, ATP production; OCR) [3]	IC50 (PC9 cells [5]) [µM]	IC50 (H460 cells; [12]) [µM]	IC50 (PC9 GR4 cells [4]; [13]) [µM]	cell survival in the presence of statins [1]	mitochondrial respiration in cells treated with ABL001 and simvastatin (MVA rescue and its reversal) [3]	other results
O=C(Nc1ccc(OC(F)(F)Cl)cc1)c1cnc(N2CC[C@@H](O)C2)c(-c2ccn[nH]2)c1 [ABL001, Asciminib]		7.5		greatly decreased				decreased cell survival		tolerability ([8]; mouse, in vivo, po): well tolerated; body weight ([8]; oral gavage, mice): does not induce weight loss; crossing of the BBB ([8]; preclinical mouse models): shown to cross the BBB; IC50 (H460 cells; Homo sapiens, NCI-H460, read-out: Calculated IC50): 15 µM; mitochondrial reactive oxygen species (MitoROS) levels [9]: increased; IC50 (PC9 BrM3 cells; Homo sapiens): 7.5 µM; mitochondrial morphology (length and width, network) (PC9 and H460 cells): marginal, nonsignificant increase; IC50 (H358 cells; Homo sapiens, NCI-H358, read-out: Calculated IC50): 15 µM; IC50 (PC9 GR4 cells [4]; Homo sapiens, PC9/GR4, read-out: Calculated IC50): 7.5 µM
